Here are results for one substance from patent US20180221487A1, “NOVEL PROTEIN TRANSFECTION COMPOSITIONS AND USES THEREOF” (Chang Gung Memorial Hospital, Linkou, priority 2017, published 2018).

Holding throughout (experiment): Protein transfection efficiency by flow cytometry
What all share (assay type): cell-based, human
On the technique in general: Flow cytometry measures light scatter and fluorescence of single cells or particles in a stream.

The test system of experiment [1] is ovarian (MDAH2774) cancer cells. Conditions: transfected using HEPES buffer (20-30 mM). The method, then:
FIG. 1 depicts the method of protein transfection in its simplest form: (A) proteins of interest and a protein transfection composition, such as HEPES buffer, are mixed and incubated for about 15 min to about 30 min (“the first incubation time”) to form a mixture. (B) Cells to be transfected are cultured with a first cultured medium comprising at least about 10% fetal bovine serum for about 24 hours, followed by the replacement of the first cultured medium with a minimal essential medium. (C) The mixture in step (A) is added to the cells in minimal essential medium in Step (B) and incubated at 37° C. for about 4 to about 24 hours (“the second incubation time”). (D) The protein transfection efficiency can be analyzed using various methods, such as immunofluorescent staining and flow cytometry. Flow cytometry: After protein transfection was completed, the cells in the culture dish were washed with PBS, trypsinized and pelleted. The cells were mixed with Fixation/Permeabilization (eBioscience, Inc., San Diego, Calif., USA) working solution and incubated at 4° C. for 30 min to 24 h. […] Cells were suspended in 1×PBS and analyzed by flow cytometry (BD Biosciences, Qume Drive San Jose, Calif., USA). […] The protein transfection efficiency can be analyzed using immunofluorescent staining or flow cytometry (Panel D). […]

The next experiment deals with breast cancer cells. Conditions: HEPES buffer 20 mM-40 mM. The protocol:
(§1) Flow cytometry: After protein transfection was completed, the cells in the culture dish were washed with PBS, trypsinized and pelleted. The cells were mixed with Fixation/Permeabilization (eBioscience, Inc., San Diego, Calif., USA) working solution and incubated at 4° C. for 30 min to 24 h. Cells were washed twice with 1× Permeabilization Buffer (eBioscience, Inc., San Diego, Calif., USA). To assess the protein transfection efficiency, the cells were stained with anti-v5 or anti-flag antibodies and Alexa Fluor 488 anti-mouse antibodies on ice. Cells were suspended in 1×PBS and analyzed by flow cytometry (BD Biosciences, Qume Drive San Jose, Calif., USA). FIG. 1 schematically illustrates the protein transfection procedure. Briefly, the protein of interest and a protein transfection composition, such as HEPES buffer, were mixed and incubated for about 15 min to about 30 min to form a mixture (Panel A). Cells to be transfected were replaced in a minimal essential medium (Panel B). The mixture in Panel A was added to the cells in Panel B and incubated at 37° C. for about 4 to about 24 hours (Panel C). The protein transfection efficiency can be analyzed using immunofluorescent staining or flow cytometry (Panel D). Alexa Fluor 488 anti-mouse IgG or […]1 were incubated with Opti-MEM (the control group) or HEPES buffer (20 mM-40 mM) to transfect the following cancer cells according to the steps in Example 1: human cervical cancer cells, human breast cancer cells (MCF7, BRCA009 or BRCA011), human endometrial cancer cells, lung adenocarcinoma cells, human pancreatic cancer cells, hepatocellular carcinoma cells, scarcoma cells, renal cell carcinoma cells, lymphoma cells, nasopharyngeal carcinoma cells, brain tumor cells, colon cancer cells, and leukemic cells. The protein transfection efficiency was assessed by flow cytometry or confocal microscope.

The subject of the next experiment is cervical cancer cells. The conditions noted are these: HEPES buffer 20 mM-40 mM. The protocol: as §1
The next experiment concerns endometrial cancer cells. The conditions noted are these: HEPES buffer 20 mM-40 mM. The protocol:
as §1

Experiment [2] concerns hepatocellular carcinoma cells. Conditions: HEPES buffer 20 mM-40 mM. The protocol:
as §1

The subject of experiment [3] is lung adenocarcinoma cells. Conditions: HEPES buffer 20 mM-40 mM. The method, then:
as §1

The test system of the next experiment is pancreatic cancer cells. Conditions: HEPES buffer 20 mM-40 mM. The method, then:
as §1

On to “rhSTIP1: v5-tagged recombinant human STIP1 protein (BiP-STIP1-V5-His), 62.6 kDa”, for which, in experiment [1], the “transfection efficiency: signal detected in % of the ovarian cancer cells” value turned out to be 99.6%. In addition, the “transfection efficiency of rhSTIP1 using HEPES buffer” value in the experiment on breast cancer cells is recorded as “about 98.8%”; in the experiment with cervical cancer cells it was “about 98.8%”; in the experiment on endometrial cancer cells, about 97%; in experiment [2], about 96.6%; in experiment [3] it was about 99.5%; with pancreatic cancer cells it was about 99.9%.
